In article PMC8242589, “Cardiac Safety of Kinase Inhibitors – Improving Understanding and Prediction of Liabilities in Drug Discovery Using Human Stem Cell-Derived Models” (Frontiers in Cardiovascular Medicine, 2021):
Each block holds one compound with its values, some of them ahead of it.

Legend:
[1] = tested on: hSC-CMs (Cor.4U Cardiomyocytes); assay: CardioExcyte 96 impedance and EFP recording (beating rate, base impedance); type: cell-based, human; conditions: for activity at 0.01 µM / activity at 0.1 µM / activity at 1 µM / activity at 10 µM: Homo sapiens, Cardiomyocyte; for activity at 0.01 µM / activity at 0.1 µM / activity at 1 µM / activity at 10 µM / BR / Base Imp: vs baseline before drug (taken as 100%)
Method: Cor.4U® Cardiomyocytes (Ncardia, Netherlands) were cultured in 96-well plates at density of 25,000 – 30,000 cells per well. Cells were maintained at 5% CO2 and 37 °C for 4 days prior to experiments.
Functional monitoring of cardiomyocytes was done using CardioExcyte® 96 (Nanion technologies GmbH, Germany). Extracellular field potential (EFP) and impedance signals were recorded from hSC-CMs that formed monolayers in the wells of the NSP-96 plate. Beating Rate (BR, per minute) was calculated as the reciprocal of the inter-spike interval (ISI) in EFP signal. Impedance signals from spontaneously beating hSC-CMs were recorded with a sampling rate of 1 ms (1 kHz), and EFP data were collected at 0.1ms (10 kHz). Data acquisition was controlled by CardioExcyte® 96 Control software as previously described ([22]). The functional parameters recorded in each concentration of test items were compared to the base line values before drug addition (taken as 100%) to define fractional change.

[2] = tested on: hSC-CMs (Cor.4U Cardiomyocytes); assay: Apoptosis assay (CellEvent Caspase-3/7 Green, IncuCyte ZOOM kinetics over 24 h); type: cell-based, human; set-up: key to Caspase / Caspase MEAN: % of time-matched vehicle control (green object area); conditions: for activity at 0.01 µM / activity at 0.1 µM / activity at 1 µM / activity at 10 µM: Homo sapiens, Cardiomyocyte; for activity at 0.01 µM / activity at 0.1 µM / activity at 1 µM / activity at 10 µM / Caspase: normalized to time-matched vehicle control
Method: Cor.4U® Cardiomyocytes ([…], Netherlands) were cultured in 96-well plates at density of 25,000 - 30,000 cells per well. Cells were maintained at 5% CO2 and 37 °C for 4 days prior to experiments. […] The plates were incubated 2 h before compound treatment in the IncuCyte ZOOM (ESSEN BioScience, Ann Arbor, Michigan) to set a baseline before the 24 h compound treatment. […] Imaging was done using 10x microscope objective of the IncuCyteZOOM with four images per well-taken every 2 h in both phase-contrast and green fluorescence. The fluorescent nuclear signal of the apoptotic cells was separated from background with the integrated object counting algorithm, adjusted to cardiomyocytes, and the calculated total green object area per well (μm^2/well) plotted against time. Data were normalized to those of the time-matched vehicle control. Data were representative of at least three replicates per concentration.

[3] = tested on: hSC-CMs (Cor.4U Cardiomyocytes); assay: ATP assay (CellTiter-Glo Luminescent Cell Viability Assay); type: cell-based, human; conditions: for viability at 0.01 µM / viability at 0.1 µM / viability at 1 µM / viability at 10 µM: Homo sapiens, Cardiomyocyte; for viability at 0.01 µM / viability at 0.1 µM / viability at 1 µM / viability at 10 µM / ATP: normalized to time-matched DMSO control
Method: Cor.4U® Cardiomyocytes (Ncardia, Netherlands) were cultured in 96-well plates at density of 25,000 – 30,000 cells per well. Cells were maintained at 5% CO2 and 37 °C for 4 days prior to experiments. The cell culture medium (Cor4U® Complete Culture Medium, cat# Ax-M-HC250E, Axiogenesis AG, Cologne, Germany) was changed every 24 h and was replaced by serum-free BMCC medium (cat# Ax-M-BMCC259, Axiogenesis AG, Cologne, Germany) 12 h prior to drug addition.
The CellTiter-Glo Luminescent Cell Viability Assay (cat# G7572, Promega, USA) was performed for quantification of the cellular ATP concentration according to manufacturer's instructions. Plates were shaken for 2 min in the dark, incubated at ambient temperature for 10 min before measuring luminescence (Integration time 0.1 seconds per well) with Luminescence Counter (Synergy H1, BioTek Instruments, Inc., Winooski, Vermont). The measured ATP concentration values were normalized to the time-matched DMSO controls. Data are representative of at least three replicates per concentration.

PI3K p110β = conditions: ref [23]–[25] (NVP-BEZ235), [27] (LY 294002), [28] (GDC-0941), [32] (TGX-221), [33] (CAL-101), [35] (CZC24832); read-out: Target IC50 p110β; cited from earlier work
PI3K p110γ = conditions: ref [23]–[25] (NVP-BEZ235), [28] (GDC-0941), [33] (CAL-101), [35] (CZC24832); read-out: Target IC50 p110γ; cited from earlier work
ROCK2 = conditions: ref [36] (RKI-1447), [37], [38] (Fasudil), [39]–[43] (Y-27632), [44], [45] (GSK-429286); read-out: Target IC50 ROCK2; cited from earlier work

Effect on hSC-CMs function (base impedance and beating rate), in words ([1]; hSC-CMs, 2 and 24 h): did not have any effect
Compound: CC(C)(C)NS(=O)(=O)c1cncc(-c2cc(F)c3nc(N)nn3c2)c1 [CZC24832]
activity at 0.01 µM ([1]; 2h, read-out: BR): 100%
activity at 0.01 µM ([1]; 2h, read-out: Base Imp): 98%
activity at 0.01 µM ([1]; 24h, read-out: BR): 96%
activity at 0.01 µM ([1]; 24h, read-out: Base Imp): 99%
activity at 0.1 µM ([1]; 2h, read-out: BR): 95%
activity at 0.1 µM ([1]; 2h, read-out: Base Imp): 98%
activity at 0.1 µM ([1]; 24h, read-out: BR): 98%
activity at 0.1 µM ([1]; 24h, read-out: Base Imp): 97%
activity at 1 µM ([1]; 2h, read-out: BR): 97%
activity at 1 µM ([1]; 2h, read-out: Base Imp): 96%
activity at 1 µM ([1]; 24h, read-out: BR): 98%
activity at 1 µM ([1]; 24h, read-out: Base Imp): 93%
activity at 10 µM ([1]; 2h, read-out: BR): 94%
activity at 10 µM ([1]; 2h, read-out: Base Imp): 93%
activity at 10 µM ([1]; 24h, read-out: BR): 97%
activity at 10 µM ([1]; 24h, read-out: Base Imp): 89%
Change in the hSC-CMs parameters (surface plots: beating rate, base impedance, ATP) ([1]; hSC-CMs, 2 and 24 h): below 20%
activity at 0.01 µM ([2]; 2h): 87%
activity at 0.01 µM ([2]; 24h): 79%
activity at 0.1 µM ([2]; 2h): 132%
activity at 0.1 µM ([2]; 24h): 88%
activity at 1 µM ([2]; 2h): 109%
activity at 1 µM ([2]; 24h): 68%
activity at 10 µM ([2]; 2h): 102%
activity at 10 µM ([2]; 24h): 76%
Apoptosis (caspase-3/7 activation), result in words ([2]; hSC-CMs, monitored over 24 h): no effect
viability at 0.01 µM ([3]; 2h): 100%
viability at 0.01 µM ([3]; 24h): 100%
viability at 0.1 µM ([3]; 2h): 99%
viability at 0.1 µM ([3]; 24h): 97%
viability at 1 µM ([3]; 2h): 99%
viability at 1 µM ([3]; 24h): 97%
viability at 10 µM ([3]; 2h): 101%
viability at 10 µM ([3]; 24h): 100%
Effect on ATP level, in words ([3]; hSC-CMs, up to the highest test concentrations): did not have any effect
IC50 (PI3K p110β): 1100 nM
IC50 (PI3K p110γ): 27 nM

Compound: C[C@@H](N)C1CCC(C(=O)Nc2ccncc2)CC1.Cl.Cl (stereo partly drawn) [Y-27632]
Effect on beating rate, in words [1]: reduced cardiomyocyte beating at both 2 h and 24 h time points
BR ([1]; 0.3 µM, 2h): 101
Base Imp ([1]; 0.3 µM, 2h): 89
BR ([1]; 0.3 µM, 24h): 95
Base Imp ([1]; 0.3 µM, 24h): 88
BR ([1]; 3 µM, 2h): 99
Base Imp ([1]; 3 µM, 2h): 89
BR ([1]; 3 µM, 24h): 100
Base Imp ([1]; 3 µM, 24h): 85
BR ([1]; 30 µM, 2h): 99
Base Imp ([1]; 30 µM, 2h): 80
BR ([1]; 30 µM, 24h): 101
Base Imp ([1]; 30 µM, 24h): 67
BR ([1]; 300 µM, 2h): 76
Base Imp ([1]; 300 µM, 2h): 61
BR ([1]; 300 µM, 24h): 68
Base Imp ([1]; 300 µM, 24h): 54
Secondary beats at 300 uM, MEAN ([1]; 300 uM, unlabelled side calculation under the 24h data): 103.939
Caspase ([2]; 0.3 µM, 2h): 119
Caspase ([2]; 0.3 µM, 24h): 94
Caspase ([2]; 3 µM, 2h): 163
Caspase ([2]; 3 µM, 24h): 129
Caspase ([2]; 30 µM, 2h): 104
Caspase ([2]; 30 µM, 24h): 163
Caspase ([2]; 300 µM, 2h): 96
Caspase ([2]; 300 µM, 24h): 306
Time of notable raise in the caspase-3/7 activity ([2]; highest test concentrations only): 12 to 18 h
Apoptosis (caspase-3/7 activity) at the highest test concentration, in words ([2]; top / highest test concentration, over 24 h): slow initial phase followed by a notable raise in the caspase-3/7 activity
ATP ([3]; 0.3 µM, 2h): 105
ATP ([3]; 0.3 µM, 24h): 100
ATP ([3]; 3 µM, 2h): 102
ATP ([3]; 3 µM, 24h): 101
ATP ([3]; 30 µM, 2h): 103
ATP ([3]; 30 µM, 24h): 103
ATP ([3]; 300 µM, 2h): 109
ATP ([3]; 300 µM, 24h): 104
IC50 (ROCK2): 89 nM
